From paper PMC9837035 (Nature Communications, 2023)
“And” between values parts separate entries of the source, which are not always exact repeats. Equal entries are not always repeated.

Key:
[1] = tested on: β- and γ-globin genes in HUDEP-2 cells; experiment: RT-qPCR of β- and γ-globin in HUDEP-2 cells; format: cell-based, human; conditions: for β-globin expression in HUDEP-2 cells / γ-globin expression in HUDEP-2 cells: relative to DMSO = 1, replicate values; for γ-globin mRNA level: HUDEP-2
Description: (§1) Total cellular RNA was prepared using the Tissue Total RNA Mini Kit (FAVORGEN), and cDNA was synthesized using ReverTra Ace Master Mix (TOYOBO). Expression of target genes was analyzed using THUNDERBIRD SYBR qPCR Mix (TOYOBO) on a CFX Connect Real Time System (Bio-Rad). The qPCR data were acquired on CFX Maestro (Bio-Rad). Primers are listed in Supplementary Table 10. GAPDH was used as a reference. Primers were purchased from INTEGRATED DNA TECHNOLOGIES or FASMAC.

[2] = tested on: rat myoblast cell line H9c2; experiment: Cell viability assay (WST-8), H9c2; format: cell-based; conditions: control (0 μM) = 100
Description: (§2) A WST-8 (2-(2-methoxy-4-nitrophenyl)-3-(4-nitrophenyl)-5-(2,4-disulfophenyl)-2H-tetrazolium) assay using a Cell Counting Kit-8 (DOJINDO) was performed to measure cell viability using an EnSpire microplate reader (PerkinElmer).

[3] = Cell viability assay (WST-8), H9c2; format: cell-based, rat; conditions: rat, H9c2 myoblast cells, control (0 μM) = 100
Description: as §2

HUDEP-2 cells = experiment: Cell viability assay (WST-8), HUDEP-2; format: cell-based, human; conditions: for cell viability in HUDEP-2 cells: control (0 μM) = 100; for cytotoxic effect on viability: HUDEP-2, 3 days
Description: as §2

[4] = Cell viability assay (WST-8), HUDEP-2; format: cell-based, human; conditions: human, HUDEP-2 cells, control (0 μM) = 100
Description: as §2

mice = experiment: Mouse acute toxicity assay, survival; format: in vivo; conditions: intravenous, 2-week observation
Description: All animal studies were approved by the Institutional Committee for Animal Experiments of the Institute of Microbial Chemistry, and were performed in accordance with relevant guidelines and regulations to minimize animal suffering. Four-week-old female ICR mice were purchased from Charles River Breeding Laboratories (Yokohama, Japan) and maintained in a specific pathogen-free barrier facility. […] Samples were dissolved in saline containing 10% DMSO and 1% Tween 80 and injected intravenously into mice.

[5] = tested on: BGLT3 RNA in HUDEP-2 cells; experiment: RT-qPCR of BGLT3 in HUDEP-2 cells; format: cell-based, human; conditions: for BGLT3 expression in HUDEP-2 cells: relative to DMSO = 1, replicate values; for BGLT3 expression: HUDEP-2
Description: as §1

H3K9me2 in HUDEP-2 cells = experiment: Western blotting of H3K9me2 in HUDEP-2 cells; format: cell-based, human; conditions: HUDEP-2, 4 days
Description: Preparation of cell lysates and western blotting were performed as described previously. Protein from cells lysates in lysis buffer (50 mM Tris-HCl (pH 7.5), 150 mM NaCl, 5 mM EDTA, 0.1% NP-40, 1 mM dithiothreitol) were separated by sodium dodecyl sulfate–polyacrylamide gel electrophoresis (SDS-PAGE) and transferred to a polyvinylidene difluoride (PVDF) membrane (Millipore) by electroblotting. The membranes incubated with primary antibodies overnight at 4 °C and secondary antibodies for 1 h at room temperature. The immune complexes were detected with the Immobilon Western Chemiluminescent HRP Substrate (Millipore). Luminescence was analyzed on a FUSION SOLO S (Vilber). Western blot bands were visualized using Evolution Capt software (M&S Instruments Inc.). Primary antibodies used were anti-G9a (1:1000, CST, #3306), anti–α-tubulin (1:5000, Abcam, ab18251), anti-H3K9me2 (1:3000, Abcam, ab1220), anti-H3 (1:5000, Abcam, ab1791), anti-H3K27me3 (1:3000, Sigma, 07-449), anti-GLP (1:1000, CST, #35005), anti-FLAG (100 ng/ml, Fujifilm, 01422383), anti-His (1:5000, MBL, PM032), anti-BCL11A (1:1000, abcam, ab19487), anti-ZBTB7A (1:1000, CST, #50565), anti-CHD3 (1:1000, Novus Biologicals, NB100-60412), and anti-CHD4 (1:1000, abcam, ab240640). Uncropped scans of all of the blots are available in Source Data file.

Q: Which “β-globin expression in HUDEP-2 cells” value ([1]; 0.01 μM) does the source give for `COc1cc2c(NC3CCN(C(C)C)CC3)nc(C3CCCCC3)nc2cc1OCCCN1CCCC1` [UNC0638] here?
A: The value was 1.0792 and 0.9641 and 1.119.

Q: And the “γ-globin expression in HUDEP-2 cells” value ([1]; 0.01 μM)?
A: The value was 2.161 and 1.8663 and 1.942.

Q: And the “β-globin expression in HUDEP-2 cells” value ([1]; 0.03 μM)?
A: Its value is 0.8727 and 0.8955 and 0.9796.

Q: And the “γ-globin expression in HUDEP-2 cells” value ([1]; 0.03 μM)?
A: Its value is 2.931 and 2.632 and 2.938.

Q: What about the “β-globin expression in HUDEP-2 cells” value ([1]; 0.1 μM) of the same compound?
A: Its value is 0.7919 and 0.6648 and 0.9576.

Q: What about the “γ-globin expression in HUDEP-2 cells” value ([1]; 0.1 μM) of the same compound?
A: The value was 3.187 and 2.85 and 3.299.

Q: And the “β-globin expression in HUDEP-2 cells” value ([1]; 0.3 μM)?
A: Its value is 0.6454 and 0.4522 and 0.612.

Q: And the “γ-globin expression in HUDEP-2 cells” value ([1]; 0.3 μM)?
A: Its value is 4.136 and 2.987 and 3.803.

Q: And the “γ-globin mRNA level” value [1]?
A: The value was “induced the expression of both BGLT3 and γ-globin”.

Q: What about the “cell viability in H9c2 cells” value ([2]; 0.039 μM) of the same compound?
A: The value was 83.333 and 114.948 and 83.569.

Q: What about the “cell viability in H9c2 cells” value ([2]; 0.156 μM) of the same compound?
A: Its value is 95.490 and 88.952.

Q: And the “cell viability in H9c2 cells” value ([2]; 0.625 μM)?
A: The value was 87.887 and 83.853.

Q: And the viability at 0.156 μM ([3]; 0.156 μM)?
A: Its viability at 0.156 μM is 90.4%.

Q: What about the viability at 0.625 μM ([3]; 0.625 μM) of the same compound?
A: The viability at 0.625 μM was 92.4%.

Q: And the “cell viability in HUDEP-2 cells” value (HUDEP-2 cells; 0.00457247 μM)?
A: The value was 93.1765 and 99.8296.

Q: And the “cell viability in HUDEP-2 cells” value (HUDEP-2 cells; 0.0137174 μM)?
A: Its value is 92.549 and 98.1261.

Q: What about the “cell viability in HUDEP-2 cells” value (HUDEP-2 cells; 0.0411523 μM) of the same compound?
A: The value was 91.9216 and 96.0818.

Q: And the “cell viability in HUDEP-2 cells” value (HUDEP-2 cells; 0.123457 μM)?
A: The value was 90.9804 and 93.0153.

Q: What about the “cell viability in HUDEP-2 cells” value (HUDEP-2 cells; 0.37037 μM) of the same compound?
A: Its value is 82.1961 and 79.7274.

Q: What about the “cell viability in HUDEP-2 cells” value (HUDEP-2 cells; 1.11111 μM) of the same compound?
A: The value was 35.1373 and 35.4344.

Q: And the “cell viability in HUDEP-2 cells” value (HUDEP-2 cells; 10 μM)?
A: The value was 4.078 and 3.407.

Q: And the “cytotoxic effect on viability” value (HUDEP-2 cells)?
A: The value was “severe cell toxicity”.

Q: And the viability at 0.00457247 μM ([4]; 0.00457247 μM)?
A: The viability at 0.00457247 μM was 97.7%.

Q: And the viability at 0.0137174 μM ([4]; 0.0137174 μM)?
A: Its viability at 0.0137174 μM is 96.8%.

Q: What about the viability at 0.0411523 μM ([4]; 0.0411523 μM) of the same compound?
A: Its viability at 0.0411523 μM is 103%.

Q: And the viability at 0.123457 μM ([4]; 0.123457 μM)?
A: Its viability at 0.123457 μM is 98.7%.

Q: What about the viability at 0.37037 μM ([4]; 0.37037 μM) of the same compound?
A: Its viability at 0.37037 μM is 83.3%.

Q: And the viability at 1.11111 μM ([4]; 1.11111 μM)?
A: The viability at 1.11111 μM was 36%.

Q: And the viability at 10 μM ([4]; 10 μM)?
A: The viability at 10 μM was 2.19%.

Q: What about the “Number of alive mice” value (mice; 1.5625 mg/kg) of the same compound?
A: Its value is 3/3.

Q: And the “Number of alive mice” value (mice; 3.125 mg/kg)?
A: The value was 3/3.

Q: What about the “Number of alive mice” value (mice; 6.25 mg/kg) of the same compound?
A: The value was 0/3.

Q: And the “Number of alive mice” value (mice; 12.5 mg/kg)?
A: Its value is 0/3.

Q: What about the “Number of alive mice” value (mice; 25 mg/kg) of the same compound?
A: The value was 0/3.

Q: What about the “BGLT3 expression in HUDEP-2 cells” value ([5]; 0.01 μM) of the same compound?
A: The value was 1.173 and 1.9605 and 1.436.

Q: And the “BGLT3 expression in HUDEP-2 cells” value ([5]; 0.03 μM)?
A: The value was 1.045 and 1.983 and 1.934.

Q: And the “BGLT3 expression in HUDEP-2 cells” value ([5]; 0.1 μM)?
A: Its value is 1.162 and 3.201 and 2.863.

Q: And the “BGLT3 expression in HUDEP-2 cells” value ([5]; 0.3 μM)?
A: The value was 3.578 and 5.267 and 5.078.

Q: And the BGLT3 expression [5]?
A: Its BGLT3 expression is “induced the expression of both BGLT3 and γ-globin”.

Q: What about the “cellular H3K9me2 levels” value (H3K9me2 in HUDEP-2 cells) of the same compound?
A: The value was “reduction of H3K9me2 levels”.

Q: Which “β-globin expression in HUDEP-2 cells” value ([1]; 0.01 μM) does the source give for `COc1cc2c(NC3CCN(C)CC3)cc(-c3ccc(C)o3)nc2cc1OCCCN1CCCC1` [CM-272] here?
A: The value was 1.0071 and 1.036 and 1.465.

Q: What about the “γ-globin expression in HUDEP-2 cells” value ([1]; 0.01 μM) of the same compound?
A: Its value is 1.193 and 1.0465 and 1.534.

Q: And the “β-globin expression in HUDEP-2 cells” value ([1]; 0.03 μM)?
A: Its value is 0.9553 and 1.237 and 1.08.

Q: And the “γ-globin expression in HUDEP-2 cells” value ([1]; 0.03 μM)?
A: Its value is 1.464 and 1.528 and 1.418.

Q: What about the “β-globin expression in HUDEP-2 cells” value ([1]; 0.1 μM) of the same compound?
A: The value was 1.5931 and 1.663 and 1.768.

Q: What about the “γ-globin expression in HUDEP-2 cells” value ([1]; 0.1 μM) of the same compound?
A: The value was 5.304 and 3.7722 and 4.868.

Q: What about the “β-globin expression in HUDEP-2 cells” value ([1]; 0.3 μM) of the same compound?
A: The value was 1.078 and 1.725 and 1.22.

Q: What about the “γ-globin expression in HUDEP-2 cells” value ([1]; 0.3 μM) of the same compound?
A: The value was 5.583 and 7.681 and 5.641.

Q: And the “β-globin expression in HUDEP-2 cells” value ([1]; 1 μM)?
A: The value was 1.093 and 1.321 and 1.148.

Q: And the “γ-globin expression in HUDEP-2 cells” value ([1]; 1 μM)?
A: Its value is 3.245 and 3.178 and 3.329.

Q: And the “γ-globin mRNA level” value [1]?
A: Its value is “induced the expression of both BGLT3 and γ-globin”.

Q: And the “cell viability in HUDEP-2 cells” value (HUDEP-2 cells; 0.123457 μM)?
A: Its value is 108.704 and 95.321 and 98.9654.

Q: And the “cytotoxic effect on viability” value (HUDEP-2 cells)?
A: Its value is “severe cell toxicity”.

Q: And the “BGLT3 expression in HUDEP-2 cells” value ([5]; 0.01 μM)?
A: Its value is 1.264 and 1.918 and 0.9309.

Q: And the “BGLT3 expression in HUDEP-2 cells” value ([5]; 0.03 μM)?
A: Its value is 0.9121 and 1.179 and 0.9824.

Q: And the “BGLT3 expression in HUDEP-2 cells” value ([5]; 0.1 μM)?
A: The value was 0.6878 and 0.8395 and 1.055.

Q: And the “BGLT3 expression in HUDEP-2 cells” value ([5]; 0.3 μM)?
A: Its value is 4.167 and 3.251 and 2.85.

Q: What about the “BGLT3 expression in HUDEP-2 cells” value ([5]; 1 μM) of the same compound?
A: Its value is 9.88 and 9.285 and 7.11.

Q: And the BGLT3 expression [5]?
A: The BGLT3 expression was “induced the expression of both BGLT3 and γ-globin”.

Q: What about the “cellular H3K9me2 levels” value (H3K9me2 in HUDEP-2 cells) of the same compound?
A: Its value is “reduction of H3K9me2 levels”.
